Measured values taken from ChEMBL document CHEMBL1135688, “Pharmacophore model of drugs involved in P-glycoprotein multidrug resistance: explanation of structural variety (hypothesis)” (J Med Chem, 2002).

target: T1, ATP-dependent translocase ABCB1 (Homo sapiens, UniProt P08183); test: High affinity constant at binding site of human P-Glycoprotein (P-gp) in two-affinity model
T1 sequence (P08183 whole entry): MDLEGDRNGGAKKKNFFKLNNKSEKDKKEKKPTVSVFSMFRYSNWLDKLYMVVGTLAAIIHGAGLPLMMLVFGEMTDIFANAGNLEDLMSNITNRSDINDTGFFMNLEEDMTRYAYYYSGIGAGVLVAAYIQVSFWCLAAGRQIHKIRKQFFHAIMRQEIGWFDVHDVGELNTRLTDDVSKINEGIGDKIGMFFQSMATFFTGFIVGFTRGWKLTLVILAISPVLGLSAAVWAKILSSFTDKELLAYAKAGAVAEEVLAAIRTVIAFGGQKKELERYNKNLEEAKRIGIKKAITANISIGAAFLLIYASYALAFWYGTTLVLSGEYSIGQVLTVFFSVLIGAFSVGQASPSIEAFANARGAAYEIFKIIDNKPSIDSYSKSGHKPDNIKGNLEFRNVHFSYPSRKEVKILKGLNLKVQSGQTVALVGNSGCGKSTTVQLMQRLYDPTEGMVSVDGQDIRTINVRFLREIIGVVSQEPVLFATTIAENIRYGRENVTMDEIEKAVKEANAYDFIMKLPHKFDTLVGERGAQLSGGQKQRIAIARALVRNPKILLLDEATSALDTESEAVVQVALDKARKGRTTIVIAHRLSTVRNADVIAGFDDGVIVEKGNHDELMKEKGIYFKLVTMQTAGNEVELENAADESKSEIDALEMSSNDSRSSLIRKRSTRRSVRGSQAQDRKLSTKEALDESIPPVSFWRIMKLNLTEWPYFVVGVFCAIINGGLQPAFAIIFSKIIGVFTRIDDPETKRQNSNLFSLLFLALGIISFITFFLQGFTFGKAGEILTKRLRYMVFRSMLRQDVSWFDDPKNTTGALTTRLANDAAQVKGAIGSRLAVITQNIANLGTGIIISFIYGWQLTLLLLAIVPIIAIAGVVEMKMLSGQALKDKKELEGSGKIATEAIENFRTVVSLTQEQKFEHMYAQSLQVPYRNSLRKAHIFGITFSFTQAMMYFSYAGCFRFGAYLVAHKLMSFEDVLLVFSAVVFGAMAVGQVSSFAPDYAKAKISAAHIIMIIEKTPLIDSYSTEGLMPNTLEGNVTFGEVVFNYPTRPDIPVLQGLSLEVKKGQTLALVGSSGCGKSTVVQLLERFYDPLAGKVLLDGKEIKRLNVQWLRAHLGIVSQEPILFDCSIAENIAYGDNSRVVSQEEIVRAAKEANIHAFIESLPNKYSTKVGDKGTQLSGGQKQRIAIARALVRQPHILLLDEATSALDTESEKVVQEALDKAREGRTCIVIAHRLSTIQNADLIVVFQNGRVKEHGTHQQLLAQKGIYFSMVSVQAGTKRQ

Ki | Compound
100 nM | COC(=O)c1ccccc1-c1c2ccc(=N)cc-2oc2cc(N)ccc12

target: T1, ATP-dependent translocase ABCB1; test: Fraction of high affinity at binding site of human P-Glycoprotein (P-gp) in two-affinity model

Binding site fraction | Compound
0.2 | C=C[C@H]1C[N@@]2CC[C@H]1C[C@H]2[C@H](O)c1ccnc2ccc(OC)cc12 [QUININE]
0.4 | CC[C@]1(O)C[C@@H]2CN(CCc3c([nH]c4ccccc34)[C@@](C(=O)OC)(c3cc4c(cc3OC)N(C)[C@H]3[C@@](O)(C(=O)OC)[C@H](OC(C)=O)[C@]5(CC)C=CCN6CC[C@]43[C@@H]65)C2)C1 [VINBLASTINE]
0.5 | CC(C)NCC(O)COc1cccc2ccccc12 (stereo not given) [PROPRANOLOL]
0.7 | COC(=O)c1ccccc1-c1c2ccc(=N)cc-2oc2cc(N)ccc12
0.2 | C=C[C@H]1C[N@@]2CC[C@H]1C[C@@H]2[C@@H](O)c1ccnc2ccc(OC)cc12 [QUINIDINE]
0.2 | COCCc1ccc(OCC(O)CNC(C)C)cc1 (stereo not given) [METOPROLOL]
0.3 | O=C(CCCN1CCC(O)(c2ccc(Cl)cc2)CC1)c1ccc(F)cc1 [HALOPERIDOL]
0.8 | CN(C)CCCN1c2ccccc2Sc2ccc(Cl)cc21 [CHLORPROMAZINE]
0.2 | CC(C)NCC(O)COc1ccc(CCNC(=O)NC(C)C)cc1 (stereo not given) [PAFENOLOL]

target: T1, ATP-dependent translocase ABCB1; test: Concentration required for 50% inhibition at binding site of human P-Glycoprotein (P-gp) in one-affinity model

IC50 | Compound
4.24 µM | COc1ccc(CCNCCCC(C#N)(c2ccc(OC)c(OC)c2)C(C)C)cc1OC (racemic) [NORVERAPAMIL]
89 µM | COc1ccc2[nH]c([S+]([O-])Cc3ncc(C)c(OC)c3C)nc2c1 (stereo in doubt; form 1) [OMEPRAZOLE]
0.5 µM | COC(=O)c1ccccc1-c1c2ccc(=N)cc-2oc2cc(N)ccc12
91.2 µM | COc1ccc2[nH]c([S+]([O-])Cc3ncc(C)c(OC)c3C)nc2c1 (stereo in doubt; form 3) [OMEPRAZOLE]
97.2 µM | COc1ccc2[nH]c([S+]([O-])Cc3ncc(C)c(OC)c3C)nc2c1 (stereo in doubt; form 2) [OMEPRAZOLE]
